From patent US10258633B2, “Treatment of fibrosis using FXR ligands” (Intercept Pharmaceuticals, Inc., priority 2004, dated 2019)

Columns and labels:
[1] = test system: hepatic stellate cells (HSC); test: Type I collagen α1 mRNA expression in HSCs by RT-PCR, quantitative RT-PCR and Northern blot; assay type: cell-based, rat; details: confirmed by Northern blot
Description: Primers: Rat SHP: [NT] (SEQ ID NO: 1) and [NT] (SEQ ID NO: 2); Rat FXR: [NT] (SEQ ID NO: 3) and [NT] […] (SEQ ID NO: 5) and [NT] (SEQ ID NO: 6); Rat c-Jun: [NT] (SEQ ID NO: 7) and 5' [NT] 3 (SEQ ID NO: 8)'; Rat JunD: [NT] (SEQ ID NO: 9) and [NT] […] (SEQ ID NO: 12). Levels of Collagen I alpha I were determined by Northern blot analyses of total RNA samples prepared from primary hepatic stellate cells (HSC), T6 and HepG2 cell lines. For this purpose, 10 μg total RNA was resolved by gel electrophoresis (1% agarose containing 0.98 M formaldehyde). Immediately after electrophoresis the RNA was transferred to a positively charged Nylon membrane (Amersham Life Sciences crop.). The transferred RNA was cross-linked to the membrane by UV light. The membrane was prehybridized for 4 hours in 6×SSC and 2% SDS and subsequently hybridized at 65° C. for 20 h with 32^P-labeled probes for collagen I alpha I or GAPDH (as internal control). Hybridized membranes were washed at a final stringency of 1×SSC, 1.0% SDS at 65° C. and exposed to Kodak AR-2 film at -80° C. The data are expressed relative to the internal GAPDH.

[2] = test system: hepatic stellate cells (HSC); test: Quantitative RT-PCR of FXR target genes (SHP, BSEP, NTCP, CYP7A1) in HSC
[3] = test system: FXR; details: cell-free assay or cell-based transactivation assay using a human or rat FXR; cited from earlier work
[4] = test system: BDL rats; test: Liver fibrosis in bile duct ligated (BDL) rats; assay type: in vivo, rat; details: 1 and 3 mg/kg/day by oral route
Description: BDL is a model of chronic cholestasis. In this model, however, progressive liver fibrosis leads to the development of cirrhosis 3-4 weeks after ligation and it is therefore also used as a model of liver fibrosis (Kountouras et al., Br. J. Exp. Pathol., 65: 305-311, 1984). Because this model allows us to test the effect of anti-fibrotic remedies, we administered rats […] with 6ECDCA at the dose of 1 and 3 mg/kg per os per day for 2 weeks. The protocol's study was approved by the Animal Study Committee of the University of Perugia. Hepatic fibrosis was induced in 8-9 weeks old male Wistar rats (Charles River, Monza, Italy) by BDL. BDL was performed as originally described by Kountouras et al. (Br. J. Exp. Pathol. 65: 305-311; 1984). One week after BDL, rats were randomized to receive one of the following treatments, placebo (subcutaneous injection of 100 μL PBS) or 6ECDCA at the doses 1 and 3 mg/kg/day by oral route. Animals were then followed for 3 weeks.
At the end of the study surviving rats were sacrificed under pentobarbital sodium anesthesia (50 mg/kg i.p) and terminally bled via cardiac puncture. The blood was centrifuged at 7250 g for 20 minutes at 4° C.; the resultant serum was stored at −20° C. until analysis (a maximum of 2 weeks). At the time of death, the bile duct ligature was confirmed to be intact with proximal dilatation of the common bile duct. After weight determination, specimens of livers were snap frozen in liquid nitrogen and stored at −70° C. for subsequent analysis. For histologic examination portions of the right and left liver lobes (10-15 mg/each) from each animal were fixed in 10% formalin, embedded in paraffin, sectioned, and stained with hematoxylin and eosin or Sirius red. For Sirius red staining, the sections were incubated for 30 minutes in 0.1% Sirius red F3B (Sigma Chemical Co.) containing saturated picric acid and 0.1% Fast Green. After rinsing twice with distilled water, sections were briefly dehydrated with 70% ethanol and coverslipped. Collagen surface density from liver samples was quantified using a computerized image analysis system as described previously (Image Acquisition System Ver. 005, Delta Sistemi, Rome, Italy). The surface density of collagen in blinded specimens was measured at a video screen display magnification according to the method described by Rockey and Chung (Rockey, D. C., Chung, J. J. J. Clin. Invest. 98: 1381-1388, 1996) and expressed as a percent (the ratio of collagen surface area per total analyzed field surface). The average of the score taken from 10 random fields was used to generate a single score for each animal's liver.

[5] = test system: hepatic stellate cells (HSC); test: HSC proliferation assay ([3H]-thymidine incorporation, cell counting); assay type: cell-based, rat

Q: With `CC(C)c1onc(-c2c(Cl)cccc2Cl)c1COc1ccc(/C=C/c2cccc(C(=O)O)c2)c(Cl)c1` [GW4064] as the compound, how does the “expression of type I collagen (α1 mRNA)” value ([1]; 100 μM) read?
A: Its value is “reduces”.

Q: Which results are given for `C[C@H](CCC(=O)O)[C@H]1CC[C@H]2[C@@H]3[C@H](O)C[C@@H]4C[C@H](O)CC[C@]4(C)[C@H]3CC[C@]12C` [CDCA, chenodeoxycholic acid, reference compound]?
A: expression of type I collagen (α1 mRNA) ([1]; 20 μM): reduces; increase of BSEP mRNA ([2]; CDCA 20 μM): 2 fold; increase of SHP mRNA ([2]; CDCA 20 μM): 2 fold

Q: With `CC[C@H]1[C@@H](O)[C@@H]2[C@H](CC[C@]3(C)[C@@H]([C@H](C)CCC(=O)O)CC[C@@H]23)[C@@]2(C)CC[C@@H](O)C[C@@H]12` [6ECDCA] as the compound, how does the EC50 [3] read?
A: Its EC50 is […].

Q: And the “expression of type I collagen (α1 mRNA)” value ([1]; 1 μM)?
A: Its value is “reduces”.

Q: And the “liver collagen deposition by scoring of Sirius-red staining” value [4]?
A: The value was “significant reduction”.

Q: What about the liver hydroxyproline content [4] of the same compound?
A: Its liver hydroxyproline content is “significant reduction”.

Q: What about the “liver α1 mRNA by RT-PCR” value [4] of the same compound?
A: The value was “significant reduction”.

Q: And the “reduction in liver collagen content, quantitative analysis of Sirius Red stained collagen” value [4]?
A: The value was 62%.

Q: And the “increase of BSEP mRNA” value ([2]; 6ECDCA 1 μM)?
A: The value was 2 fold.

Q: What about the “increase of SHP mRNA” value ([2]; 6ECDCA 1 μM) of the same compound?
A: Its value is 2 fold.
